{"source": "ChEMBL document CHEMBL5236544", "about": "“Furazans in Medicinal Chemistry” (J Med Chem, 2021)", "key": {"HeLa [1]": {"tested_on": "HeLa", "assay": "Antiproliferative activity against human HeLa cells assessed as cell growth inhibition", "type": "functional, cell-based"}, "Rattus norvegicus [2]": {"tested_on": "Rattus norvegicus", "assay": "Antihypertensive activity in spontaneously hypertensive rat model assessed as change in blood pressure at 3 mg/kg, po measured after 3 hrs", "type": "functional"}, "Rattus norvegicus [3]": {"tested_on": "Rattus norvegicus", "assay": "Antihypertensive activity in spontaneously hypertensive rat model assessed as change in blood pressure at 3 mg/kg, po measured after 10 hrs", "type": "functional"}, "HASMC": {"tested_on": "HASMC", "assay": "Antiproliferative activity against human HASMC cells assessed as inhibition of cell proliferation measured after 24 hrs by MTT assay", "type": "functional, cell-based"}, "Rattus norvegicus [4]": {"tested_on": "Rattus norvegicus", "assay": "Antihypertensive activity in spontaneously hypertensive rat model assessed as change in heart rate at 1 mmol/Kg, po measured after 3 hrs", "type": "functional"}, "Rattus norvegicus [5]": {"tested_on": "Rattus norvegicus", "assay": "Antihypertensive activity in spontaneously hypertensive rat model assessed as change in heart rate at 10 mg/Kg, po measured after 6 hrs", "type": "functional"}, "Rattus norvegicus [6]": {"tested_on": "Rattus norvegicus", "assay": "Antihypertensive activity in spontaneously hypertensive rat model assessed as change in blood pressure at 3 mg/kg, po measured after 6 hrs", "type": "functional"}, "Rattus norvegicus [7]": {"tested_on": "Rattus norvegicus", "assay": "Antihypertensive activity in spontaneously hypertensive rat model assessed as change in heart rate at 1 mmol/Kg, po measured after 10 hrs", "type": "functional"}, "HCT-116 [8]": {"tested_on": "HCT-116", "assay": "Antiproliferative activity against human HCT-116 cells assessed as inhibition of cell proliferation by MTT assay", "type": "functional, cell-based"}, "[9]": {"assay": "Half life in rat, iv", "type": "ADME", "details": "in vivo"}, "[10]": {"assay": "Antiproliferative activity against mouse Lewis lung carcinoma cell line cells assessed as inhibition of cell proliferation by MTT assay", "type": "functional, cell-based"}, "A549 [11]": {"tested_on": "A549", "assay": "Antiproliferative activity against human A549 cells assessed as inhibition of cell proliferation by MTT assay", "type": "functional, cell-based"}, "A549 [12]": {"tested_on": "A549", "assay": "Antitumor activity against human A549 cells xenografted in mouse model assessed as reduction in tumor growth at 100 mg/kg bid relative to control", "type": "functional", "set-up": "scale not given: the % may be the effect or the level left"}, "Histone deacetylase": {"target": "Histone deacetylase", "assay": "Inhibition of HDAC (unknown origin)", "type": "protein assay, Homo sapiens"}, "[13]": {"assay": "Lipophilicity, log D of compound", "type": "physicochemical", "details": "octanol/water"}, "[14]": {"assay": "Inhibition of HIF (unknown origin)", "set-up": "species or system Homo sapiens"}, "[15]": {"assay": "Half life in mouse", "type": "ADME, organism-based", "details": "in vivo"}, "HEK-293T [16]": {"tested_on": "HEK-293T", "assay": "Antitumor activity against human HEK293T cells xenografted in mouse model assessed as reduction in tumor growth at 100 mg/kg bid relative to control", "type": "functional", "set-up": "scale not given: the % may be the effect or the level left"}, "HEK-293T [17]": {"tested_on": "HEK-293T", "assay": "Antiproliferative activity against human HEK293T cells assessed as inhibition of cell proliferation by MTT assay", "type": "functional, cell-based"}, "SK-OV-3 [18]": {"tested_on": "SK-OV-3", "assay": "Antiproliferative activity against human SK-OV-3 cells assessed as inhibition of cell proliferation by MTT assay", "type": "functional, cell-based"}, "SK-OV-3 [19]": {"tested_on": "SK-OV-3", "assay": "Antitumor activity against human SK-OV-3 cells xenografted in mouse model assessed as reduction in tumor growth at 100 mg/kg bid relative to control", "type": "functional", "set-up": "scale not given: the % may be the effect or the level left"}, "[20]": {"assay": "Half life in human liver microsomes", "type": "ADME"}, "Rattus norvegicus [21]": {"species": "Rattus norvegicus", "assay": "Antihypertensive activity in spontaneously hypertensive rat model assessed as reduction in pulmonary arterial pressure", "type": "functional"}, "Rattus norvegicus [22]": {"tested_on": "Rattus norvegicus", "assay": "Antihypertensive activity in spontaneously hypertensive rat model assessed as change in blood pressure at 10 mg/kg, po measured after 10 hrs", "type": "functional"}, "Rattus norvegicus [23]": {"species": "Rattus norvegicus", "assay": "Antihypertensive activity in spontaneously hypertensive rat model assessed as reduction in systemic arterial pressure", "type": "functional"}, "Rattus norvegicus [24]": {"tested_on": "Rattus norvegicus", "assay": "Antihypertensive activity in spontaneously hypertensive rat model assessed as change in blood pressure at 10 mg/kg, po measured after 3 hrs", "type": "functional"}, "Rattus norvegicus [25]": {"tested_on": "Rattus norvegicus", "assay": "Antihypertensive activity in spontaneously hypertensive rat model assessed as change in blood pressure at 10 mg/kg, po measured after 6 hrs", "type": "functional"}, "Streptococcus pneumoniae [26]": {"tested_on": "Streptococcus pneumoniae", "assay": "Antibacterial activity against Streptococcus pneumoniae assessed as reduction in bacterial growth incubated for 1 hrs in presence of tobramycin by colony-counting method", "type": "functional"}, "Streptococcus pneumoniae [27]": {"tested_on": "Streptococcus pneumoniae", "assay": "Antibacterial activity against Streptococcus pneumoniae assessed as reduction in bacterial growth by broth microdilution method", "type": "functional"}, "Staphylococcus aureus [28]": {"tested_on": "Staphylococcus aureus", "assay": "Antibiofilm activity against Staphylococcus aureus reduction in biofilm formation in the presence of azithromycin at 63 uM relative to control", "type": "functional", "set-up": "scale not given: the % may be the effect or the level left"}, "Staphylococcus aureus [29]": {"tested_on": "Staphylococcus aureus", "assay": "Antibacterial activity against Staphylococcus aureus assessed as reduction in bacterial growth by broth microdilution method", "type": "functional"}, "Staphylococcus aureus [30]": {"tested_on": "Staphylococcus aureus", "assay": "Antibacterial activity against Staphylococcus aureus assessed as reduction in bacterial growth incubated for 1 hrs in presence of azithromycin by colony-counting method", "type": "functional"}, "Streptococcus pneumoniae [31]": {"tested_on": "Streptococcus pneumoniae", "assay": "Antibiofilm activity against Streptococcus pneumoniae reduction in biofilm formation in the presence of tobramycin at 13 uM relative to control", "type": "functional", "set-up": "scale not given: the % may be the effect or the level left"}, "Streptococcus pneumoniae [32]": {"tested_on": "Streptococcus pneumoniae", "assay": "Antibiofilm activity against Streptococcus pneumoniae reduction in biofilm formation at 63 uM relative to control", "type": "functional", "set-up": "scale not given: the % may be the effect or the level left"}, "Staphylococcus aureus [33]": {"tested_on": "Staphylococcus aureus", "assay": "Antibiofilm activity against Staphylococcus aureus reduction in biofilm formation at 63 uM relative to control", "type": "functional", "set-up": "scale not given: the % may be the effect or the level left"}, "HCT-116 [34]": {"tested_on": "HCT-116", "assay": "Antitumor activity against human HCT-116 cells xenografted in mouse model assessed as reduction in tumor growth at 100 mg/kg bid relative to control", "type": "functional", "set-up": "scale not given: the % may be the effect or the level left"}, "HeLa [35]": {"tested_on": "HeLa", "assay": "Antiproliferative activity against human HeLa cells assessed as reduction in cell viability by MTT assay", "type": "functional, cell-based"}, "[36]": {"target": "Indoleamine 2,3-dioxygenase 1 (Homo sapiens, UniProt P14902)", "sequence (P14902 whole entry)": "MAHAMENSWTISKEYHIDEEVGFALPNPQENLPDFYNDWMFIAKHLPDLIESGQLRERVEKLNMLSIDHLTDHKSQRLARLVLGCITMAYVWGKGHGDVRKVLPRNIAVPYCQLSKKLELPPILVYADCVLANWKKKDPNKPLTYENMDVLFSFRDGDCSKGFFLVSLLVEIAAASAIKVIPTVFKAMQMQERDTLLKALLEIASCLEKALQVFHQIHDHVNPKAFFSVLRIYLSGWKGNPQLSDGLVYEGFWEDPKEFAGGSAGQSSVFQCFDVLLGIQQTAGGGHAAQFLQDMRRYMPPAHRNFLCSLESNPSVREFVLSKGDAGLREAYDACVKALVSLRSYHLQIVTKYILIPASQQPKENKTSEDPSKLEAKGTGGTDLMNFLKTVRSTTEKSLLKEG", "assay": "Inhibition of IDO1 (unknown origin)"}, "MCF7": {"tested_on": "MCF7", "assay": "cells", "type": "functional, cell-based", "details": "Homo sapiens, MCF7, 24 h", "description": "Antiproliferative activity against human MCF7 assessed as reduction in cell viability incubated for 24 hrs by MTT assay"}, "physchem [37]": {"assay": "physchem", "details": "octanol/water", "description": "Lipophilicity, log P of the compound"}, "in vitro": {"assay": "in vitro", "details": "human, liver microsomes, po, 10 mg/kg", "description": "Half life in human liver microsomes at 10 mg/kg, po"}, "physchem [38]": {"assay": "physchem", "details": "PBS, pH 7.4", "description": "Solubility of the compound in PBS at pH 7.4"}}, "note": "Several values for one entry are separate records, joined by “and”; a condition that tells them apart may be missing. Identical values can stand only once."}
{"smiles": "Cc1ccc(/C=N/NC(=O)c2nnn(-c3nonc3N)c2-c2ccc([N+](=O)[O-])cc2)cc1", "values": [{"measurement": "EC50", "setting": "HeLa [1]", "result": 15.1, "unit": "µM"}]}
{"smiles": "O=S(=O)(c1cccc2cnccc12)N1CCCNCC1", "note": "[FASUDIL]", "values": [{"measurement": "Activity", "setting": "Rattus norvegicus [2]", "result": -30, "unit": "mmHg"}, {"measurement": "Activity", "setting": "Rattus norvegicus [3]", "result": 0, "unit": "mmHg"}, {"measurement": "IC50", "setting": "HASMC", "result": 1.3, "unit": "µM"}, {"measurement": "Activity", "setting": "Rattus norvegicus [4]", "result": -50, "unit": "bpm"}, {"measurement": "Activity", "setting": "Rattus norvegicus [5]", "result": -10, "unit": "bpm"}, {"measurement": "Activity", "setting": "Rattus norvegicus [6]", "result": -20, "unit": "mmHg"}, {"measurement": "Activity", "setting": "Rattus norvegicus [7]", "result": -10, "unit": "bpm"}]}
{"smiles": "Nc1ccccc1NC(=O)c1ccc(C(=O)NCCNc2nonc2/C(=N/O)Nc2ccc(F)c(Br)c2)cc1", "values": [{"measurement": "EC50", "setting": "HCT-116 [8]", "result": 5.1, "unit": "µM"}, {"measurement": "half-life", "setting": "[9]", "result": 3.4, "unit": "h"}, {"measurement": "EC50", "setting": "[10]", "result": 18, "unit": "µM"}, {"measurement": "EC50", "setting": "A549 [11]", "result": 0.17, "unit": "µM"}, {"measurement": "Activity", "setting": "A549 [12]", "result": "56% and 54%"}, {"measurement": "IC50", "setting": "Histone deacetylase", "result": 0.067, "unit": "µM"}]}
{"smiles": "CS(=O)(=O)c1ccc(Oc2cc(F)cc(C#N)c2)c2c1[C@H](O)[C@H](F)[C@@H]2F", "note": "[BELZUTIFAN]", "values": [{"measurement": "logD", "setting": "[13]", "result": 1.2}, {"measurement": "IC50", "setting": "[14]", "result": 9, "unit": "µM"}]}
{"smiles": "NS(=O)(=O)N1CCC[C@@H](CNc2nonc2/C(=N/O)Nc2ccc(F)c(Br)c2)C1", "values": [{"measurement": "half-life", "setting": "[15]", "result": 3.8, "unit": "h"}, {"measurement": "Activity", "setting": "HEK-293T [16]", "result": 25, "unit": "%"}, {"measurement": "EC50", "setting": "HEK-293T [17]", "result": 0.069, "unit": "µM"}]}
{"smiles": "NS(=O)(=O)CC(=O)NCCSc1nonc1/C(=N/O)Nc1cccc(Cl)c1", "values": [{"measurement": "EC50", "setting": "SK-OV-3 [18]", "result": 0.01, "unit": "µM"}, {"measurement": "Activity", "setting": "SK-OV-3 [19]", "result": 50, "unit": "%"}, {"measurement": "half-life", "setting": "[20]", "result": "> 3", "unit": "h"}]}
{"smiles": "C[C@@H](N)[C@H]1CC[C@H](C(=O)Nc2ccncc2)CC1", "note": "[Y-27632]", "values": [{"measurement": "Activity", "setting": "Rattus norvegicus [21]", "result": -10, "unit": "mmHg"}, {"measurement": "Activity", "setting": "Rattus norvegicus [22]", "result": -5, "unit": "mmHg"}, {"measurement": "Activity", "setting": "Rattus norvegicus [23]", "result": -32, "unit": "mmHg"}, {"measurement": "Activity", "setting": "Rattus norvegicus [4]", "result": 75, "unit": "bpm"}, {"measurement": "Activity", "setting": "Rattus norvegicus [5]", "result": 10, "unit": "bpm"}, {"measurement": "Activity", "setting": "Rattus norvegicus [24]", "result": -25, "unit": "mmHg"}, {"measurement": "Activity", "setting": "Rattus norvegicus [25]", "result": -10, "unit": "mmHg"}, {"measurement": "Activity", "setting": "Rattus norvegicus [7]", "result": 0, "unit": "bpm"}]}
{"smiles": "N=C(N/C(=N/O)c1nonc1N)c1ccccc1N", "values": [{"measurement": "MIC", "setting": "Streptococcus pneumoniae [26]", "result": 50, "unit": "µM"}, {"measurement": "MIC", "setting": "Streptococcus pneumoniae [27]", "result": 250, "unit": "µM"}, {"measurement": "Activity", "setting": "Staphylococcus aureus [28]", "result": 48, "unit": "%"}, {"measurement": "MIC", "setting": "Staphylococcus aureus [29]", "result": 250, "unit": "µM"}, {"measurement": "MIC", "setting": "Staphylococcus aureus [30]", "result": 200, "unit": "µM"}, {"measurement": "Activity", "setting": "Streptococcus pneumoniae [31]", "result": 50, "unit": "%"}, {"measurement": "Activity", "setting": "Streptococcus pneumoniae [32]", "result": 73, "unit": "%"}, {"measurement": "Activity", "setting": "Staphylococcus aureus [33]", "result": 77, "unit": "%"}]}
{"smiles": "O=C(NCCNc1nonc1/C(=N/O)Nc1ccc(F)c(Br)c1)c1cccc(N(CCCl)CCCl)c1", "values": [{"measurement": "EC50", "setting": "HCT-116 [8]", "result": 5.1, "unit": "µM"}, {"measurement": "Activity", "setting": "HCT-116 [34]", "result": "58% and 48%"}, {"measurement": "EC50", "setting": "HeLa [35]", "result": 0.27, "unit": "µM"}, {"measurement": "EC50", "setting": "[10]", "result": 18, "unit": "µM"}, {"measurement": "IC50", "setting": "[36]", "result": 0.13, "unit": "µM"}]}
{"smiles": "Oc1nc2nonc2nc1Nc1ccc(OC(F)(F)F)cc1", "values": [{"measurement": "EC50", "setting": "MCF7", "result": 4.3, "unit": "µM"}, {"measurement": "logP", "setting": "physchem [37]", "result": 5.2}, {"measurement": "half-life", "setting": "in vitro", "result": 5.7, "unit": "h"}, {"measurement": "solubility", "setting": "physchem [38]", "result": "> 500", "unit": "µM"}]}
